Bridges are numbered along the chain shown (N, C = ends). FAM = fluorescein-amide / fluoresceinamine label
Key:
[1] = tested on: hippocampus of hAPP-J20 AD and wild-type mice; experiment: In vivo CX7C T7 phage library screen, sequencing of phage recovered from hippocampus; set-up: species or system mouse; conditions: for Frequency/%: hippocampus 30 min after i.v. phage library, high throughput sequencing of inserts; for Representation in sequenced phage pools, AD versus normal brain: 9-month AD mouse vs normal mouse hippocampus
Experimental: In vivo phage screening was conducted using a T7 phage library expressing random peptides with the composition of CXnC (C=cysteine; X=any amino acid; n=7). The mouse model used for this screening is the hAPP-J20 that expresses amyloid precursor protein (APP) with both the Swedish and Indiana mutations (Murrell et al., Science 254, 97-99. (1991); Mullan et al., Nat. Genet. 1, 345-347. (1992)). Peptides homing to the hippocampus of these mice was the focus because the hippocampal region is where the AB-related lesions and damage are most prevalent early on in the disease.
A CX7C phage library was intravenously injected into 9 month-old AD and wild-type (WT) littermate mice, and allowed to circulate for 30 min, after which mice were perfused with saline, brains were collected, and the hippocampal region was dissected and subjected to phage titration and high throughput sequencing of the phage inserts. A surprise result was that the number of phage recovered from the AD hippocampus samples was much higher than the number recovered from a similar screen on normal littermates of the AD mice (FIG. 1A). […] BBB leakage has also been reported in AD patients.
Parallel phage library screens were performed on a normal mouse and a 9-month old AD transgenic mouse (J20 hAPP tg mouse line, which expresses transgenic amyloid precursor protein with two disease-related mutations). The library was intravenously injected into anesthetized mice and the hippocampal area of the brain was collected 30 min after intravenous injection of the library, phage was isolated from the tissue samples and subjected to high throughput sequencing of the peptide-encoding inserts in the phage DNA. Table 1 list most abundantly represented peptide from the two kinds of brains, and all peptides with significant representation in the AD brain and absent or nearly absent in the normal brain are listed in Table 2. Two peptides, CASPRLSKC (SEQ ID NO: 3) and CESPLLSEC (SEQ ID NO: 11), from among the highest scoring ones were subjected to detailed studies as described below.
hAPP-J20 mice were intravenously injected with 1e10 pfu of a CX7C (wherein X is any amino acid) naïve phage library, in 100 μL of PBS. The library was allowed to circulate for 30 minutes, after which mice were anesthetized with 2.5% avertin and perfused with PBS intracardially. The brain was removed and the hippocampus was extracted and homogenized in LB-NP 40 (1%) and phage was processed as described (Teesalu et al., Methods Enzymol 503, 35-56 (2012)). The phages in the lysate were rescued by amplification in E. coli and peptide-encoding portion of the phage genome was sequenced using Ion Torrent high throughput sequencing.

[2] = tested on: AD hippocampus; experiment: Homing of intravenously injected individual peptide-displaying phages; format: in vivo, mouse; conditions: intravenously injected phage displaying the peptide
Text: FIG. 1B relates to phage titration showing that about 5 times more phage were recovered from the AD hippocampus than from the normal control. In the sequencing, phages displaying the peptides code named CASP (SEQ ID NO: 3; CASPRLSKC), CES (SEQ ID NO: 11, CESPLLSEC), and DAG (SEQ ID NO: 102, CDAGRKQKC) dominated. Hippocampus from age-matched normal wild-type mouse brain was used as a control.

[3] = tested on: hAPP-J20 mouse brain (hippocampus); conditions: i.v., 30 min circulation, 9-month-old AD (hAPP-J20) vs normal/WT mice
Experimental: The synthetic peptides were labeled with FAM and 100 nmol and were intravenously injected to 9-month old AD mice through the tail vein. The peptides were allowed to circulate for 30 min, after which the mice were perfused with 20 ml of PBS, the brains were collected and snap-frozen in OCT for sectioning. The peptides were detected by anti-FAM staining (green), nuclei were stained with DAPI (blue), and anti-CD31 was used to visualize blood vessels.
For peptide homing, mice were intravenously injected with 50 nmole peptide dissolved in PBS, and allowed to circulate for 30 min. Mice were then perfused intracardially with saline and all major organs were isolated and fixed in 4% paraformaldehyde (PFA) at pH 7.4 overnight. The organs were then washed with PBS and placed in graded sucrose solutions overnight before optimal cutting temperature compound (OCT) embedding. Ten-micro-meter-thick sections were cut and analyzed by immunostaining.
Frozen sections were permeabilized using PBS- 0.2% Triton™ X-100 (PBST), blocking was carried out using blocking buffer (5% BSA, 1% goat serum, 1% donkey serum in PBST. Primary antibodies were incubated in diluted (1%) blocking buffer overnight at dilutions 1/100 or 1/200 at 4° C., washed with PBST and incubated with secondary antibodies diluted 1/200 or 1/500 in 1% diluted buffer for 1 hour at room temperature, subsequently washed with PBST, counterstained with DAPI 1 μg/mL in PBS for 5 minutes, washed with PBS, mounted using aqueous mounting media (Vector Biolabs), and imaged using a confocal microscope (Zeiss LSM-710).

[4] = target: T1, recombinant human CTGF (Homo sapiens, UniProt P29279); experiment: ELISA binding to recombinant CTGF; conditions: non-labeled DAG 0.5 mM
T1 construct: purchased Affymetrix 14-8503-80
T1 sequence (P29279 253-349 limits assumed): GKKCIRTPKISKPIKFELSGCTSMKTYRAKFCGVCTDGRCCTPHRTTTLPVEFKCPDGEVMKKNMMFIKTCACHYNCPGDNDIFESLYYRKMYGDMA
Experimental: FIG. 10 is a graphical representation relating to identification of a receptor for DAG. DAG binds to recombinant CTGF. FAM-DAG was incubated on ELISA plate coated with recombinant human CTGF at two different peptide concentrations of the FAM peptide alone (light gray bars), or in the presence of non-labeled DAG (0.5 mM) (dark gray bars). […] DAG was also shown to colocalize with CTGF. FAM-DAG was intravenously injected in 9-month-old hAPP-J20 and WT mice, allowed to circulate for 30 minutes, after which mice were perfused, and the brains were fixed, sectioned and stained for FAM (green) and CTGF (red).
Human CTGF recombinant protein (Affymetrix Cat #14-8503-80) was incubated on Nunc low-binding plates at concentration of 10 μg/ml for overnight at 4° C. Excess protein in the plates was removed by washing with PBS-T (PBS with 0.005% Tween 20). Plates were blocked with 200 μl of 3% non-fat milk in PBS for 1 hour at room temperature and washed with PBS-T once. Biotin-labeled peptide (at different concentrations) in PBS was added to the plate for 2 hours at 37° C. For peptide inhibition, non-labeled DAG peptide (0.5 mM) was added 30 minutes prior to addition of labeled peptide. The plates were washed with 100 μl PBS-T for three times to remove excess peptide. The bound peptide was detected by incubating with 100 μl of Vectastain ABC™ reagent (Vector labs, Burlingame, Calif.) for 30 minutes. The plate was washed with 100 μl PBS-T three times. Next, 100 μl of o-phenylenediamine dihydrochloride (OPD) silver and gold substrate (Sigma-Aldrich) was added to the wells and incubated at room temperature until visible color was observed (˜30 min). Adding 50 μl of 1 M H2SO4 stopped the reaction and the plate was read at 495 nm (FlexStation™ 3 Reader, Molecular Devices, Sunnyvale, Calif., USA).

[5] = Alzheimer's mouse (9-month old J20 hAPP tg)

Substance	Frequency/% ([1]; Wild-type mouse)	Frequency/% [1, 5]	further results
CADDGC [SEQ ID NO: 94]	1.244%		
CARVKK [SEQ ID NO: 91]	1.67%		
CASPRLSKC [SEQ ID NO: 3]		0.7226%	Representation in sequenced phage pools, AD versus normal brain [1]: dominated; Phage accumulation in normal brain [2]: no accumulation in normal brain; Phage homing to AD hippocampus [2]: home to AD hippocampus with high specificity; Homing of FAM-labeled peptide to hippocampus [3]: homed to the dentate gyms of AD brain but not normal brain
CATPRDKRTC [SEQ ID NO: 87]	2.373%		
CELSQ [SEQ ID NO: 97]	1.089%		
CEQVRQKRC [SEQ ID NO: 4]		0.3956%	
CESPLLSEC [SEQ ID NO: 11]		0.316%	Representation in sequenced phage pools, AD versus normal brain [1]: dominated; Phage accumulation in normal brain [2]: no accumulation in normal brain; Phage homing to AD hippocampus [2]: home to AD hippocampus with high specificity; Homing of FAM-labeled peptide to hippocampus [3]: homed to the dentate gyms of AD brain but not normal brain
CKVRKSEGC [SEQ ID NO: 85]	3.559%		
CLSLD [SEQ ID NO: 88]	2.286%		
CLTDNEETC [SEQ ID NO: 7]		0.3341%	
CNSKETSRC [SEQ ID NO: 5]		0.3885%	
CRKQGEAKC [reference compound]			Homing of FAM-labeled peptide to hippocampus [3]: essentially no homing to the hippocampus of hAPP-J20 mice
CRKQPTNVC [SEQ ID NO: 92]	1.495%		
CRTPLNPRC [SEQ ID NO: 95]	1.171%		
CSDRRLIDC [SEQ ID NO: 90]	1.737%		
CSGDMETKC [SEQ ID NO: 89]	1.846%		
CSGKAQRGC [SEQ ID NO: 100]		0.3349%	
CSKTTE [SEQ ID NO: 2]		0.8549%	
CSPE [SEQ ID NO: 6]		0.3766%	
CSRTSKQAC [SEQ ID NO: 98]	1.022%		
CSTNA [SEQ ID NO: 93]	1.426%		
CTKTAK [SEQ ID NO: 10]		0.3191%	
CTREGNETC [SEQ ID NO: 96]	1.098%		
CTVNGKRSC [SEQ ID NO: 99]	0.9707%		
CVPKGKLVC [SEQ ID NO: 84]	4.678%		
CVPKGKLVLLSL [SEQ ID NO: 86]	2.377%		
FAM-CASPRLSKC: fluorescein-amide (FAM)-labeled CASPRLSKC peptide ({FAM}-CASPRLSKC-NH2; cysteine pairing not given here)			Homing of FAM-labeled peptide to hippocampus [3]: homed to AD, but not normal, hippocampus
FAM-CESPLLSEC: fluorescein-amide (FAM)-labeled CESPLLSEC peptide ({FAM}-CESPLLSEC-NH2; cysteine pairing not given here)			Homing of FAM-labeled peptide to hippocampus [3]: homed to AD, but not normal, hippocampus
FAM-DAG: Fluoresceinamine (FAM)-labeled synthetic DAG peptide ({FAM}-CDAGRKQKC-NH2; disulfide 1-9 (inferred); not fully specified)			Inhibition of CTGF binding by unlabeled DAG [4]: Non-labeled DAG inhibited the binding of FAM-DAG; Homing of FAM-labeled peptide to hippocampus [3]: specifically homed AD hippocampus
SSVDKL [SEQ ID NO: 9]		0.3223%	
